Experimental data as given in EP4786466A1, “QUINAZOLINE DERIVATIVE, SALT THEREOF, AND PHARMACEUTICAL COMPOSITION COMPRISING SAME AS ACTIVE INGREDIENT” (Korea Research Institute of Chemical Technology, priority 2023, dated 2025).
pIC50: −log10 of the molar value. Like-named read-outs stand apart in the source and are kept apart here.

Key:
[1] = in vitro; settings: human
Protocol: (§1) MCF7 breast cancer cell lines and MCF10A normal breast cancer cell lines were treated with serial dilutions of the compounds of the present invention ranging from 1 µM to 15.63 nM for 72 hours. Cell viability was measured by the WST-8 assay (Cyto XTM cell viability assay kit; LPS solution, Daejeon, Korea) according to the manufacturer's instructions.

[2] = target: T1, Recombinant GST-TAG-MASTL (Homo sapiens, UniProt Q96GX5); experiment: HTRF-based kinase assay (HTRF KinEASE assay kit); format: biochemical; settings: for activity at 1 µM: read-out: MASTL activity (%) HTRF (1 µM)
T1 construct: GST; purchased Thermo Fisher Scientific
T1 sequence (Q96GX5 1-879): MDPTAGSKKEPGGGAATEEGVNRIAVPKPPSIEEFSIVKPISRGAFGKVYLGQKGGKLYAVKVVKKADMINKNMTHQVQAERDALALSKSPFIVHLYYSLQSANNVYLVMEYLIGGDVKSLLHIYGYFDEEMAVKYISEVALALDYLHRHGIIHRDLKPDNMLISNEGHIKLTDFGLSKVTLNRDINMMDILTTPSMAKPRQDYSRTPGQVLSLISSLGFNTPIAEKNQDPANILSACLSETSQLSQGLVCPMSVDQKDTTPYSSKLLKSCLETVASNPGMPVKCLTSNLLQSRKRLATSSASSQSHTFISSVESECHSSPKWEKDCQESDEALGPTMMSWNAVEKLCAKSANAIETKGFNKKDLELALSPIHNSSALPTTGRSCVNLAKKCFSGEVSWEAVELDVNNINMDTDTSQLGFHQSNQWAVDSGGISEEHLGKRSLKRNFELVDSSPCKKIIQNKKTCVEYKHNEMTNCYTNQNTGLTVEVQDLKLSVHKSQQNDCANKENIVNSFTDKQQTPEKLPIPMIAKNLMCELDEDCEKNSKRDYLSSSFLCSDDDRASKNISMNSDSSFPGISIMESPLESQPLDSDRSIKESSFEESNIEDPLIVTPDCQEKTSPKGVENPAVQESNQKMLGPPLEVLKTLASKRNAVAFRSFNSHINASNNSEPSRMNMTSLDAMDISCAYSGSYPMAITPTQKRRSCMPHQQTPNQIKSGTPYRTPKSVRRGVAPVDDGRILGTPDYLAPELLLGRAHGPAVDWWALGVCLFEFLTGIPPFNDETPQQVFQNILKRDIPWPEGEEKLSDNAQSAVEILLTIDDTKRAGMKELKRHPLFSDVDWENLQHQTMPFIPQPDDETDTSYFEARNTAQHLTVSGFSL
Description: Recombinant GST-TAG-MASTL (Thermo Fisher Scientific, MA, USA) was used for HTRF-based kinase assays. The HTRF KinEASE assay kit (CisBio, MA, USA) was used according to the manufacturer's instructions.

[3] = tested on: MCF7 breast cancer cell lines; experiment: Cell viability analysis, WST-8 assay, MCF7; settings: for viability at 1 µM / viability at 1.1 µM / viability at 1.25 µM: Homo sapiens, MCF7, 72 h; for viability at 1 µM: read-out: Cell viability (%) WST-8, MCF7 (1 µM), compound 1 µM, 72 hours; for viability at 1.1 µM: read-out: Cell viability (%) WST-8, MCF7, footnote d: concentration 1.1 µM, 72 hours; for viability at 1.25 µM: read-out: Cell viability (%) WST-8, MCF7, footnote a: concentration 1.25 µM, 72 hours
Protocol: as §1

[4] = tested on: pENSA; experiment: pENSA level by immunofluorescence (described method: in vitro kinase analysis with GST-tag-MASTL and His-tag-ENSA); format: cell-based; settings: read-out: IC50(nM) pENSA
Protocol: Two recombinant GST-tag-MASTL (Thermo Fisher Scientific) and His-tag-ENSA (Sino Biological Inc., Beijing, China) were used for in vitro kinase analysis. In vitro kinase analysis was performed as described in the literature [Front Oncol 2020, 10, 571601, 39-202021-10-20doi:10.3389/fonc.2020.571601.].
Phosphorylated ENSA (pENSA), which is activated by phosphorylation by MASTL, can be utilized as a biomarker as it is expected that its activity will be inhibited along with the inhibition of MASTL. In the cell viability assay, MCF7 refers to a breast cancer cell line, and MCF10A refers to a normal breast […] cell line.

| Structure (SMILES) | activity at 1 µM ([2]; compound 1 µM) [%] | viability at 1 µM [3] [%] | viability at 1 µM ([1]; mcf10a cells) [%] | further results |
| --- | --- | --- | --- | --- |
| N#CCc1ccc(Nc2nc(Nc3cccc(N)c3)c3ccccc3n2)cc1 [compound 3n, 2-(4-((4-((3-aminophenyl)amino)quinazolin-2-yl)amino)phenyl)acetonitrile] | 125 | 117 | – | viability at 1 µM [1]: 95.2% |
| c1ccc2c(Nc3cc(C4CC4)[nH]n3)nc(Nc3cnc4[nH]ccc4c3)nc2c1 [compound 4dg, N^4-(5-cyclopropyl-1H-pyrazol-3-yl)-N^2-(1H-pyrrolo[2,3-b]pyridin-5-yl)quinazoline-2,4-diamine] | 37.9 | 49 | – | viability at 1 µM [1]: 12% |
| CC(C)NC(=O)N1CC2CC1CN2c1nc(Nc2cn[nH]c2)c2ccccc2n1 (centres unmarked) [compound 28a, 5-(4-((1G-pyrazol-4-yl)amino)quinazolin-2-yl)-M-isopropyl-2,5-diazabicyclo[2.2.1]heptane-2-carboxamide] | – | 99 | – | viability at 1.25 µM ([1]; mcf10a cells): 93.9% |
| CC(C)S(=O)(=O)c1ccccc1Nc1nc(Nc2ccc(CC#N)cc2)nc2ccccc12 [compound 3g, 2-(4-((4-((2-(isopropylsulfonyl)phenyl)amino)quinazolin-2-yl)amino)phenyl)acetonitrile] | – | – | – | viability at 1.1 µM [1]: 99.7%; activity at 3.3 µM ([2]; footnote c: concentration 3.3 µM): 127%; viability at 1.1 µM [3]: 109% |
| CCNC(=O)c1ccc(Nc2nc(Nc3cc(C4CC4)[nH]n3)c3ccccc3n2)cc1 [4af, 4-((4-((5-cyclopropyl-1G-pyrazol-3-yl)amino)quinazolin-2-yl)amino)-M-ethylbenzamide] | 49.6 | 66.6 | 66.5 | – |
| c1ccc2c(Nc3cc(C4CC4)n[nH]3)nc(Nc3ccc4nc[nH]c4c3)nc2c1 [compound 4df, N^2-(1H-benzo[d]imidazol-5-yl)-N^4-(5-cyclopropyl-1H-pyrazol-3-yl)quinazoline-2,4-diamine] | 31.8 | 78.4 | – | viability at 1 µM [1]: 4.8% |
| CC(C)NC(=O)N1CC2CC1CN2c1nc(Nc2cc(C3CC3)[nH]n2)c2ccccc2n1 (centres unmarked) [compound 15b, 5-(4-((5-cyclopropyl-1G-pyrazol-3-yl)amino)quinazolin-2-yl)-M-isopropyl-2,5-diazabicyclo[2.2.1]heptane-2-carboxamide] | – | 75.3 | 77.2 | – |
| N#CCc1ccc(C2=CCN(c3nc(Nc4cc(C5CC5)[nH]n4)c4ccccc4n3)CC2)cc1F [compound 6n, 2-(4-(1-(4-((5-cyclopropyl-1G-pyrazol-3-yl)amino)quinazolin-2-yl)-1,2,3,6-tetrahydropyridin-4-yl)-2-fluorophenyl)acetonitrile] | – | 110 | 116 | pIC50 [2]: 6.92; activity at 1 µM [2]: 30.8% |
| CC(C)(C)OC(=O)N1CC2C(C1)C2Nc1nc(Nc2cc(C3CC3)[nH]n2)c2ccccc2n1 (centres unmarked) [4ag, sdqs-butyl 6-((4-((5-cyclopropyl-1G-pyrazol-3-yl)amino)quinazolin-2-yl)amino)-3-azabicyclo[3.1.0]hexane-3-carboxylate] | 67.1 | 56.4 | 74.5 | – |
| Cc1cc(Nc2nc(N3CC4CC3CN4C(=O)Nc3ccccc3)nc3ccccc23)n[nH]1 (centres unmarked) [compound 27b, 5-(4-((5-methyl-1G-pyrazol-3-yl)amino)quinazolin-2-yl)-M-phenyl-2,5-diazabicyclo[2.2.1]heptane-2-carboxamide] | – | 83.2 | 36.1 | – |
| N#Cc1cc(Cl)ccc1C1=CCN(c2nc(Nc3cc(C4CC4)[nH]n3)c3ccccc3n2)CC1 [compound 6o, 5-chloro-2-(1-(4-((5-cyclopropyl-1G-pyrazol-3-yl)amino)quinazolin-2-yl)-1,2,3,6-tetrahydropyridin-4-yl)benzonitrile] | – | 48.4 | 24.9 | activity at 1 µM [2]: 61.2% |
| c1ccc2c(Nc3cc(C4CC4)[nH]n3)nc(Nc3cnc4cccnn34)nc2c1 [compound 4dh, N^4-(5-cyclopropyl-1H-pyrazol-3-yl)-N^2-(imidazo[1,2-b]pyridazin-3-yl)quinazoline-2,4-diamine] | 88.7 | 116 | – | viability at 1 µM [1]: 111% |
| N#Cc1ccccc1S(=O)(=O)N1CC2CC1CN2c1nc(Nc2cc(C3CC3)[nH]n2)c2ccccc2n1 (centres unmarked) [compound 15v, 2-((5-(4-((5-cyclopropyl-1G-pyrazol-3-yl)amino)quinazolin-2-yl)-2,5-diazabicyclo[2.2.1]heptan-2-yl)sulfonyl)benzonitrile] | – | 80.5 | 81.8 | pIC50 [2]: 7.28; activity at 1 µM [2]: 29.5% |
| N#CCc1ccc(Nc2nc(Nc3ccccc3F)c3ccccc3n2)cc1 [compound 3k, 2-(4-((4-((2-fluorophenyl)amino)quinazolin-2-yl)amino)phenyl)acetonitrile] | 99.1 | 120 | – | viability at 1 µM [1]: 96.6% |
| O=C(Nc1ccccc1)N1CC2CC1CN2c1nc(Nc2cn[nH]c2)c2ccccc2n1 (centres unmarked) [compound 28b, 5-(4-((1G-pyrazol-4-yl)amino)quinazolin-2-yl)-M-phenyl-2,5-diazabicyclo[2.2.1]heptane-2-carboxamide] | – | 91.2 | 37 | – |
| CNc1nc(Nc2cc(C3CC3)[nH]n2)c2ccccc2n1 [compound 4cb, N^4-(5-cyclopropyl-1H-pyrazol-3-yl)-N^2-methylquinazoline-2,4-diamine] | – | – | – | viability at 1.25 µM [1]: 102%; activity at 10 µM ([2]; footnote b: concentration 10 µM, read-out: MASTL activity (%) HTRF): 53.1%; viability at 1.25 µM [3]: 87.5% |
| N#Cc1ccc(Nc2nc(Nc3cc(C4CC4)[nH]n3)c3ccccc3n2)cc1 [compound 4d, 4-((4-((5-cyclopropyl-1G-pyrazol-3-yl)amino)quinazolin-2-yl)amino)benzonitrile] | – | – | – | viability at 1.25 µM ([1]; mcf10a cells): 3.2%; pIC50 [2]: 6.20; activity at 1.25 µM ([2]; read-out: MASTL activity (%) HTRF): 32.6%; viability at 1.25 µM [3]: 5.6%; selectivity for breast cancer cells over normal cells in the cell viability assay ([3]; MCF7 versus MCF10A): selectively inhibit only breast cancer cells |
| Cc1nn(C)c(C)c1Nc1nc(Nc2ccc(CC#N)cc2)nc2ccccc12 [3c, 2-(4-((4-((1,3,5-trimethyl-1G-pyrazol-4-yl)amino)quinazolin-2-yl)amino)phenyl)acetonitrile] | – | – | – | viability at 1.1 µM ([1]; mcf10a cells): 115%; activity at 1 µM [2]: 123%; viability at 1.1 µM [3]: 110% |
| N#CCc1ccc(Nc2nc(Nc3nnc(C4CC4)s3)c3ccccc3n2)cc1 [compound 3l, 2-(4-((4-((5-cyclopropyl-1,3,4-thiadiazol-2-yl)amino)quinazolin-2-yl)amino)phenyl)acetonitrile] | 114 | 80.5 | – | viability at 1 µM [1]: 104% |
| N#CCc1ccc(Nc2nc(Nc3cn[nH]c3)c3ccccc3n2)cc1 [compound 3f, 2-(4-((4-((1G-pyrazol-4-yl)amino)quinazolin-2-yl)amino)phenyl)acetonitrile] | – | – | – | viability at 1.1 µM ([1]; mcf10a cells): 98.3%; activity at 1 µM [2]: 92.5%; viability at 1.1 µM [3]: 117% |
| Cc1cc(Nc2nc(N3CC4CC3CN4C(=O)NC(C)C)nc3ccccc23)n[nH]1 (centres unmarked) [compound 27a, M-isopropyl-5-(4-((5-methyl-1G-pyrazol-3-yl)amino)quinazolin-2-yl)-2,5-diazabicyclo[2.2.1]heptane-2-carboxamide] | – | 95.6 | 90.7 | – |
| N#CCc1ccc(Nc2nc(Nc3ccccc3O)c3ccccc3n2)cc1 [compound 3u, 2-(4-((4-((2-hydroxyphenyl)amino)quinazolin-2-yl)amino)phenyl)acetonitrile] | 121 | 49.3 | – | IC50 [4]: 678 nM |
